# Test results published in patent US8486916B2, “Medicine, food and drink or feed containing sphingomyelin” (Megmilk Snow Brand Co., Ltd., priority 2005, dated 2013).
# Columns and labels:
# [1] = system: carrageenin-induced edema; test: Carrageenin-induced footpad edema method; assay type: in vivo, Wistar rats; details: 100 mg/kg oral; 5 hours after λ-carrageenin injection
# Method: The anti-inflammatory effect of sphingomyelin was tested by a carrageenin-induced footpad edema method. Specifically, a test subject shown in Table 15 was suspended in an aqueous solution containing 0.5% carboxymethylcellulose and orally administered (100 mg/kg) to male Wistar rats (body weight: 110 to 130 g, 8 individuals per group) according to the method of Winter et al. (Proceedings of the Society for Experimental Biology & Medicine, vol. 111, pp. 554, 1962). […] An aqueous solution containing 0.5% carboxymethylcellulose and no test substance was administered to rats in a control group. A rate of increase in footpad volume (V0) attributed to the injection of λ-carrageenin was measured in the control group in the same way as above. An carrageenin-induced edema inhibition rate (%) was calculated according to the calculation formula: (V0−V1)×100/V0 and used as the anti-inflammatory activity of the test substance. A higher value of this inhibition rate indicates higher anti-inflammatory activity.
# [2] = system: sialomucin content in the saliva; test: Effect of promoting sialomucin secretion: sialomucin content in rat saliva; assay type: in vivo, SD rats; details: 7th day of experimental diet containing 1% of the substance
# Method: Seven-week-old male SD rats (manufactured by Charles River Laboratories, Japan, Inc) were raised under conditions involving humidity of 60%, room temperature of 24° C., and light-dark (12 hour/12 hour) control. All the rats were preliminarily raised for 1 week with a standard diet and then divided into 3 groups each containing 12 individuals. These groups were allowed to freely take their respective experimental diets and raised for 1 week. Rat saliva was collected on the 7th day after the administration of experimental diets. A sialomucin content in the saliva was measured by high-performance liquid chromatography. […] In this context, a sialomucin content in the saliva was measured by the following method: 0.2 ml of a Nembutal solution was intramuscularly injected to rats fasted for 2 hours or longer. After anesthesia, a solution of pilocarpine hydrochloride serving as a saliva secretion promoter was intramuscularly injected thereto. […] A sialomucin content in the sialomucin fraction was quantified with a Sialic Acid Fluorescence Labeling Kit (Takara Bio Inc.). […] Free N-acetyl sialic acid or O-acetylated sialic acid was reacted at 55° C. for 2.5 hours by the addition of a DMB reagent as a fluorescence labeling agent and then quantified by high-performance liquid chromatography.
# cholera toxin = details: in vivo
Compound,Inhibition rate [1] [%],Sialomucin content [2] [µg/µL],Inhibition rate (cholera toxin) [%]
COc1ccc2c(c1)c(CC(=O)O)c(C)n2C(=O)c1ccc(Cl)cc1 [Indomethacin],37.5,,
"CC(=O)N[C@H]1[C@H]([C@H](O)[C@H](O)CO)OC(O)(C(=O)O)C[C@@H]1O (stereo partly shown) [Sialic acid (derived from milk), Sialic acid]",38.1,,
"sialyllactose [SL, reference compound]",,24.9 ± 3.1,37.9 ± 2.9
